We go through five compounds from ChEMBL document CHEMBL1146619, “The design and synthesis of guanosine compounds with in vitro activity against the colon cancer cell line SW480: non-taxane derived mimics of taxol?” (Bioorg Med Chem Lett, 2003).

Broadly, the IC50 is the concentration that gives 50% inhibition.

The assay concerns SW480. The assay can be described thus: In vitro anti-cancer activity against the colon cancer cell line SW480 was determined. In kind it is functional, cell-based. The settings on record: Homo sapiens.

`COc1ccc(C(Nc2nc(O)c3ncn(C4OC(COC(=O)[C@@H]5OC(C)(C)N(C(=O)c6ccccc6)[C@H]5c5ccccc5)C5OC(C)(C)OC54)c3n2)(c2ccccc2)c2ccccc2)cc1` (stereo not given in full): it took 152 µM to reach half-maximal inhibition (IC50).

On to `CC(=O)O[C@H]1C(=O)[C@@]2(C)[C@H]([C@H](OC(=O)c3ccccc3)[C@]3(O)C[C@H](OC(=O)[C@H](O)[C@@H](NC(=O)c4ccccc4)c4ccccc4)C(C)=C1C3(C)C)[C@]1(OC(C)=O)CO[C@@H]1C[C@@H]2O` [PACLITAXEL], for which the IC50 was determined as 0.312 µM.

On to `CC(=O)N1[C@@H](c2ccccc2)[C@H](C(=O)OCC2OC(n3cnc4c(O)nc(NC(=O)C(C)C)nc43)C3OC(C)(C)OC23)OC1(C)C` (stereo not given in full), for which inhibition was half-maximal at 192 µM (IC50).

In turn, `CC(C)C(=O)Nc1nc(O)c2ncn(C3OC(COC(=O)[C@@H]4OC(C)(C)N(C(=O)c5ccccc5)[C@H]4c4ccccc4)C4OC(C)(C)OC43)c2n1` (stereo not given in full) registered an IC50 of 222 µM. The IC50 values of the last two compounds are within 1.5-fold of each other.

For `COc1ccc(C(Nc2nc(O)c3ncn(C4OC(COC(=O)[C@@H]5OC(C)(C)N(C(C)=O)[C@H]5c5ccccc5)C5OC(C)(C)OC54)c3n2)(c2ccccc2)c2ccccc2)cc1` (stereo not given in full), the IC50 worked out at 19.9 µM.
